# Measurements reported in ChEMBL document CHEMBL1136505, “Myxovirescin analogues via macrocyclic ring-closing metathesis” (2003).
# Activity calls are given as the source filed them. The calls are words filed in the database; no cut-off is given here.
# Columns and labels:
# Type in all cases: functional, organism-based
# Schaalia meyeri = test: Antibacterial activity against Actinomyces meyeri (ATCC 61789) at a concentration of 200 ug/mL; Active
# Prevotella bivia = test: Antibacterial activity against Bacteroides bivus (ATCC 64362) at a concentration of 200 ug/mL; not active
# Prevotella buccae = test: Antibacterial activity against Bacteroides buccae (ATCC 67792) at a concentration of 200 ug/mL; not active; details: Segatella buccae
# [1] = tested on: Pseudoflavonifractor capillosus; test: Antibacterial activity against Bacteroides capillosus (ATCC 60802) at a concentration of 200 ug/mL; not active
# Bacteroides uniformis = test: Antibacterial activity against Bacteroides uniformis (ATCC 62723) at a concentration of 200 ug/mL; not active
# Hoylesella oralis [2] = test: Antibacterial activity against Bacteroides oralis (ATCC 72708) at a concentration of 200 ug/mL; not active
# Bacteroides ovatus [3] = test: Antibacterial activity against Bacteroides ovatus (ATCC 66640) at a concentration of 200 ug/mL; not active
# Corynebacterium sp. [4] = test: Antibacterial activity against Corynebacterium sp. (ATCC 68984) at a concentration of 200 ug/mL; Active
# Fusobacterium mortiferum = test: Antibacterial activity against Fusobacterium mortiferum (ATCC 63425) at a concentration of 200 ug/mL; not active
# Fusobacterium sp. = test: Antibacterial activity against Fusobacterium sp.(ATCC 74714) at a concentration of 200 ug/mL; not active
# Escherichia coli = test: Antibacterial activity against Escherichia coli (ATCC NCTC 6571) at a concentration of 200 ug/mL; not active
# Pasteurella sp. [5] = test: Antibacterial activity against Pasteurella sp.(ATCC 67777) at a concentration of 200 ug/mL; not active
# Pasteurella sp. [6] = test: Antibacterial activity against Pasteurella sp.(ATCC 69527) at a concentration of 200 ug/mL; not active
# Pasteurella sp. [7] = test: Antibacterial activity against Pasteurella sp.(ATCC 71886) at a concentration of 200 ug/mL; not active
# Pasteurella multocida [8] = test: Antibacterial activity against Pasteurella multocida (ATCC 61096) at a concentration of 200 ug/mL; not active
# Pasteurella multocida [9] = test: Antibacterial activity against Pasteurella multocida (ATCC 63560) at a concentration of 200 ug/mL; not active
# Porphyromonas canoris [10] = test: Antibacterial activity against Porphyromonas canoris (ATCC NCTC 12835) at a concentration of 200 ug/mL; Active
# Porphyromonas canoris [11] = test: Antibacterial activity against Porphyromonas canoris (ATCC NCTC 12836) at a concentration of 200 ug/mL; Active
# Porphyromonas gingivalis [12] = test: Antibacterial activity against Porphyromonas gingivalis sp.(ATCC D23C) at a concentration of 200 ug/mL
# Pasteurella sp. [13] = test: Antibacterial activity against Pasteurella sp.(ATCC 67535) at a concentration of 200 ug/mL; Active
# Propionibacterium [14] = test: Antibacterial activity against Propionibacterium sp.(ATCC 72661) at a concentration of 200 ug/mL; Active
# Staphylococcus aureus [15] = test: Antibacterial activity against Staphylococcus aureus (ATCC NCTC 6571) at a concentration of 200 ug/mL; not active
# Actinomyces sp. [16] = test: Antibacterial activity against Actinomyces sp.(ATCC 70710) at a concentration of 200 ug/mL; Active
# Hoylesella oralis [17] = test: Antibacterial activity against Bacteroides oralis (ATCC 72708) at a concentration of 200 ug/mL; Active
# Bacteroides ovatus [18] = test: Antibacterial activity against Bacteroides ovatus (ATCC 66640) at a concentration of 200 ug/mL; Active
# Porphyromonas gingivalis [19] = test: Antibacterial activity against Porphyromonas gingivalis sp.(ATCC D23C) at a concentration of 200 ug/mL; Active
# Staphylococcus aureus [20] = test: Antibacterial activity against Staphylococcus aureus (ATCC NCTC 6571) at a concentration of 200 ug/mL; Active
# Actinomyces sp. [21] = test: Antibacterial activity against Actinomyces sp.(ATCC 70710) at a concentration of 200 ug/mL; not active
# Corynebacterium sp. [22] = test: Antibacterial activity against Corynebacterium sp. (ATCC 68984) at a concentration of 200 ug/mL; not active
# Pasteurella sp. [23] = test: Antibacterial activity against Pasteurella sp.(ATCC 67535) at a concentration of 200 ug/mL; not active
# Propionibacterium [24] = test: Antibacterial activity against Propionibacterium sp.(ATCC 72661) at a concentration of 200 ug/mL; not active
Structure (SMILES),Activity (Schaalia meyeri),Activity (Prevotella bivia),Activity (Prevotella buccae),Activity [1],Activity (Bacteroides uniformis),Activity (Hoylesella oralis [2]),Activity (Bacteroides ovatus [3]),Activity (Corynebacterium sp. [4]),Activity (Fusobacterium mortiferum),Activity (Fusobacterium sp.),Activity (Escherichia coli),Activity (Pasteurella sp. [5]),Activity (Pasteurella sp. [6]),Activity (Pasteurella sp. [7]),Activity (Pasteurella multocida [8]),Activity (Pasteurella multocida [9]),Activity (Porphyromonas canoris [10]),Activity (Porphyromonas canoris [11]),Activity (Porphyromonas gingivalis [12]),Activity (Pasteurella sp. [13]),further results
CCC[C@@H]1OC(=O)CCCCCCCCCCCCCC/C=C(\C)CC[C@@H](O)[C@@H](O)C[C@H](O)CNC1=O,Active,inactive,inactive,inactive,inactive,inactive,inactive,Active,inactive,inactive,inactive,inactive,inactive,inactive,inactive,inactive,Active,Active,inactive,Active,Activity (Propionibacterium [14]): Active; Activity (Staphylococcus aureus [15]): inactive; Activity (Actinomyces sp. [16]): Active
CCC[C@H]1OC(=O)CCCCCCCCCCCCCC/C=C/C[C@H](O)[C@H](O)[C@@H](O)[C@H](O)[C@H](O)CNC1=O,Active,inactive,inactive,inactive,inactive,,,Active,inactive,inactive,inactive,inactive,inactive,inactive,inactive,inactive,Active,Active,,Active,Activity (Hoylesella oralis [17]): Active; Activity (Bacteroides ovatus [18]): Active; Activity (Porphyromonas gingivalis [19]): Active; Activity (Propionibacterium [14]): Active; Activity (Staphylococcus aureus [20]): Active; Activity (Actinomyces sp. [16]): Active
CCC[C@@H]1OC(=O)CCCCCCCCCCCCCC/C=C/C[C@H](O)[C@H](O)[C@@H](O)[C@H](O)[C@H](O)CNC1=O,Active,inactive,inactive,inactive,inactive,inactive,inactive,,inactive,inactive,inactive,inactive,inactive,inactive,inactive,inactive,Active,Active,inactive,,Activity (Actinomyces sp. [21]): inactive; Activity (Corynebacterium sp. [22]): inactive; Activity (Pasteurella sp. [23]): inactive; Activity (Propionibacterium [24]): inactive; Activity (Staphylococcus aureus [15]): inactive
